Results: patent publication US20260274833A1 (NiKang Therapeutics, Inc., priority 2022, published 2026)

Biological target: T1, CDK2 (Homo sapiens, UniProt P24941)
T1 construct: endogenous in cells; host or cells: OVCAR3 cells
Test: Phospho-RB measurement in OVCAR3 cells (HTRF phospho-RB cellular kit)
Format: cell-based
Details: inhibition of RB phosphorylation at S807/811 (HTRF, TR-FRET ratio 665/620), 24 h compound treatment, 0.3 to 10,000 nM
In short: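 IC50 came from a four-parameter logistic fit of the DMSO-normalized TR-FRET ratio (665/620 nm). That ratio reflects RB phosphorylation at S807/811, read with an HTRF antibody pair 4 h after adding lysate at room temperature.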

Row | SMILES | IC50 [nM]
1 | CN1CCN(c2ccc(Nc3nccc(-c4sc(C(C)(C)C)nc4-c4cccc(NS(=O)(=O)N5CCc6ccc(C#N)cc65)c4F)n3)cc2)CC1 [Example 249, N-(3-(2-(tert-butyl)-5-(2-((4-(4-methyl-piperazin-1-yl)phenyl)amino)pyrimidin-4-yl)-thiazol-4-yl)-2-fluoro-phenyl)-6-cyanoindoline-1-sulfonamide] | 684
2 | CC(C)(C)c1nc(-c2cccc(NS(=O)(=O)N3CCc4ccc(C#N)cc43)c2F)c(-c2ccnc(Nc3ccc(N4CCN(C5COC5)CC4)cc3)n2)s1 [Example 250, N-(3-(2-(tert-butyl)-5-(2-((4-(4-(oxetan-3-yl)-piperazin-1-yl)phenyl)amino)-pyrimidin-4-yl)thiazol-4-yl)-2-fluoro-phenyl)-6-cyanoindoline-1-sulfonamide] | 576
3 | Cn1ncc2c1CN(S(=O)(=O)Nc1cccc(-c3nc(C(C)(C)C)sc3-c3ccnc(Nc4ccc(N5CCNCC5)cc4)n3)c1F)C2 [Example 251] | 1530
4 | Cn1cc2c(n1)CN(S(=O)(=O)Nc1cccc(-c3nc(C(C)(C)C)sc3-c3ccnc(Nc4ccc(N5CCNCC5)cc4)n3)c1F)C2 [Example 252, N-(3-(2-(tert-butyl)-5-(2-((4-(piperazin-1-yl)-phenyl)amino)pyrimidin-4-yl)-thiazol-4-yl)-2-fluorophenyl)-2-methyl-2,6-dihydropyrrolo-[3,4-c]pyrazole-5(4H)-sulfonamide] | 3310
5 | CC(C)(C)c1nc(-c2cccc(NS(=O)(=O)N3Cc4ccc(C(F)F)cc4C3)c2F)c(-c2ccnc(NC3CCN(S(C)(=O)=O)CC3)n2)s1 [Example 254, N-(3-(2-(tert-butyl)-5-(2-((1+ (methylsulfonyl)-piperidin-4-yl)amino)-pyrimidin-4-yl)thiazol-4-yl)-2-fluoro-phenyl)-5-(difluoromethyl)-isoindoline-2-sulfonamide] | 317
6 | CC(C)(C)c1nc(-c2cccc(NS(=O)(=O)N3Cc4ccc(C(F)F)cc4C3)c2F)c(-c2ccnc(NC3CC4(C3)CS(=O)(=O)C4)n2)s1 [Example 255, N-(3-(2-(tert-butyl)-5-(2-((2,2-dioxido-2-thiaspiro[3.3]heptan-6-yl)amino)-pyrimidin-4-yl)thiazol-4-yl)-2-fluoro-phenyl)-5-(difluoromethyl) isoindoline-2-sulfonamide] | 683
7 | CC(C)(C)c1nc(-c2cccc(NS(=O)(=O)N3Cc4ccccc4C34CC4)c2F)c(-c2ccnc(NC3CCN(S(C)(=O)=O)CC3)n2)s1 [Example 256, N-(3-(2-(tert-butyl)-5-(2-((1-(methylsulfonyl)-piperidin-4-yl)amino)-pyrimidin-4-yl)thiazol-4-yl)-2-fluoro-phenyl)spiro [cyclopropane-1,1′-isoindoline]-2′-sulfonamide] | 3080
8 | CC(C)(C)c1nc(-c2cccc(NS(=O)(=O)N3CCc4ccc(C(C)(C)O)cc43)c2F)c(-c2ccnc(NC3CC4(C3)CS(=O)(=O)C4)n2)s1 [Example 257, N-(3-(2-(tert-butyl)-5-(2-((2,2-dioxido-2-thiaspiro[3.3]heptan-6-yl)amino)-pyrimidin-4-yl)thiazol-4-yl)-2-fluoro-phenyl)-6-(2-hydroxypropan-2-yl)indoline-1-sulfonamide] | 2960
9 | CNc1cccc2c1N(S(=O)(=O)Nc1cccc(-c3nc(C(C)(C)C)sc3-c3ccnc(NC4CCN(S(C)(=O)=O)CC4)n3)c1F)CC2 [Example 258, N-(3-(2-(tert-butyl)-5-(2-((1-(methylsulfonyl)-piperidin-4-yl)amino)-pyrimidin-4-yl)thiazol-4-yl)-2-fluoro-phenyl)-7-(methylamino) indoline-1-sulfonamide] | 435
10 | CN(c1cccc2c1NCC2)S(=O)(=O)Nc1cccc(-c2nc(C(C)(C)C)sc2-c2ccnc(NC3CCN(S(C)(=O)=O)CC3)n2)c1F [Example 259, N-(3-(2-(tert-butyl)-5-(2-((1-(methylsulfonyl)-piperidin-4-yl)amino)-pyrimidin-4-yl)thiazol-4-yl)-2-fluoro-phenyl)-(N-methyl-N-indolin-7-yl)-amine-sulfonamide] | 2040
